Among the data in patent publication US12528792B2, “Sulfonamide compounds and the use thereof in the treatment of cancer” (TROBIO THERAPEUTICS PTY LTD, priority 2019, dated 2026) are IC50 values, retold here.

Common to all, as to format: cell-based
One assay has as its system A2780 (ovarian) cells. The assay is described as follows: Anti-proliferative activity, Cell-Titre luminescent viability assay. To be noted: Homo sapiens, 72 h exposure, Cell-Titre luminescent reagent. Summed up:
(§1)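 Cells attached 24 h at 37° C., 5% CO2, then treated 72 h with compound at 0.3–100 μM or 0.1–30 μM. Viability read by Cell-Titre luminescence after 30 min reagent exposure, normalized to vehicle; EC50 from variable-slope sigmoidal nonlinear regression.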

In the next assay the test system is A549 (NSCLC) cells. Described as above. To be noted: Homo sapiens, 72 h exposure, Cell-Titre luminescent reagent. In outline: as §1
In assay [1] the test system is SK-N-SH neuroblastoma cells. The assay is described as follows: Cytotoxicity assay, MTS viability. To be noted: Homo sapiens, 72 hours. As to the method: The ability of compounds of the disclosure to inhibit the proliferation of SK—N—SH neuroblastoma cells was assessed. The SK—N—SH cell line was maintained as a monolayer in Dulbeccos Modified Eagles medium (DMEM) supplemented with 10% foetal bovine serum (FBS) and grown at 37° C. in a humidified atmosphere with 5% CO2. For the cytotoxicity assay, SK—N—SH cells were seeded at a density of 2×10^3 cells per well in 96-well plates. The cells were treated with serial dilutions of the test compounds (1:2 starting concentration 100 µM) and viability measured after 72 hours using a standard MTS assay. Cell viability was normalised to control (vehicle alone) and dose response curves and EC50 values (Table 3) were determined using Graph Pad Prism 6.

One may read the IC50 as the concentration needed to halve the response being measured. A lower IC50 goes with greater potency. On to `CC(C)c1ccc(NC(=O)c2ccn(S(=O)(=O)c3ccc4[nH]ccc4c3)n2)cc1F` [Compound 108, 1-((1H-indol-5-yl)sulfonyl)-N-(3-fluoro-4-isopropylphenyl)-1H-pyrazole-3-carboxamide], for which the results for the half-maximal inhibitory concentration (IC50) (in the assay with A2780 (ovarian) cells; in the assay with A549 (NSCLC) cells; in assay [1]) were 8.71 µM, 4.09 µM and 9.71 µM, respectively.

In the case of `CCC(C)c1ccc(NC(=O)C2CCN(S(=O)(=O)c3ccn(C)c3)CC2)cc1` (stereo not drawn) [Compound 28, N-(4-(sec-butyl)phenyl)-1-((1-methyl-1H-pyrrol-3-yl)sulfonyl)piperidine-4-carboxamide], the IC50 with A2780 (ovarian) cells came to 24.7 µM; in the assay with A549 (NSCLC) cells, 13 µM; in assay [1], 11.7 µM.

For `CCC(C)c1cccc(NC(=O)c2ccn(S(=O)(=O)c3ccc4[nH]ccc4c3)c2)c1` (stereo not drawn) [Compound 35, 1-((1H-indol-5-yl)sulfonyl)-N-(3-(sec-butyl)phenyl)-1H-pyrrole-3-carboxamide], the values for the IC50 (with A2780 (ovarian) cells; with A549 (NSCLC) cells; in assay [1]) were 2.2 µM, 3.6 µM and 6.81 µM, respectively.

With `CCC(C)c1ccc(NC(=O)C2CCN(S(=O)(=O)c3ccc4cc[nH]c4n3)CC2)cc1` (stereo not drawn) [Compound 65, 1-((1H-pyrrolo[2,3-b]pyridin-6-yl)sulfonyl)-N-(4-(sec-butyl)phenyl) piperidine-4-carboxamide], the figures for the IC50 (in the assay on A2780 (ovarian) cells; with A549 (NSCLC) cells; in assay [1]) were 22.3 µM, 16.2 µM and 12.5 µM, respectively.

With `CCCc1ccc(NC(=O)c2ccn(S(=O)(=O)c3ccc4[nH]ccc4c3)n2)cc1` [Compound 109, 1-((1H-indol-5-yl)sulfonyl)-N-(4-propylphenyl)-1H-pyrazole-3-carboxamide], the IC50 came to 8.65 µM with A2780 (ovarian) cells, 5.53 µM in the assay with A549 (NSCLC) cells and 11 µM in assay [1].

Regarding `CCC(C)c1ccc(NC(=O)C2CCN(S(=O)(=O)c3ccc4c(c3)CCN4)CC2)cc1` (stereo not drawn) [Compound 3, N-(4-(sec-butyl)phenyl)-1-(indolin-5-ylsulfonyl) piperidine-4-carboxamide], the IC50 in the assay with A2780 (ovarian) cells is over 100 µM; with A549 (NSCLC) cells, 19.9 µM; in assay [1] it was 19.3 µM.

Consider `O=C(Nc1ccccc1F)c1ccn(S(=O)(=O)c2ccc3[nH]ccc3c2)c1` [Compound 50, 1-((1H-indol-5-yl)sulfonyl)-N-(2-fluorophenyl)-1H-pyrrole-3-carboxamide], for which the IC50 in the assay on A2780 (ovarian) cells came out at 1.8 µM; in the assay with A549 (NSCLC) cells it was 4 µM; in assay [1] it was 11.5 µM.

For `CCC(C)c1ccc(NC(=O)c2ccn(S(=O)(=O)c3ccc4c(c3)CCN4)c2)cc1` (stereo not drawn) [Compound 21, N-(4-(sec-butyl)phenyl)-1-(indolin-5-ylsulfonyl)-1H-pyrrole-3-carboxamide], the IC50 is 20 µM in the assay on A2780 (ovarian) cells, 37.4 µM in the assay on A549 (NSCLC) cells and 27.1 µM in assay [1].

In the case of `Cc1ccccc1NC(=O)c1ccn(S(=O)(=O)c2ccc3[nH]ccc3c2)c1` [Compound 45, 1-((1H-indol-5-yl)sulfonyl)-N-(o-tolyl)-1H-pyrrole-3-carboxamide], the IC50 was found to be 2.2 µM in the assay on A2780 (ovarian) cells, 5.2 µM in the assay on A549 (NSCLC) cells and 27 µM in assay [1].

For `O=C(Nc1ccc(Cl)c(Cl)c1)c1ccn(S(=O)(=O)c2ccc3[nH]ccc3c2)c1` [Compound 71, 1-((1H-indol-5-yl)sulfonyl)-N-(3,4-dichlorophenyl)-1H-pyrrole-3-carboxamide], the IC50 was 7.49 µM with A2780 (ovarian) cells, 9.28 µM in the assay on A549 (NSCLC) cells and 8.9 µM in assay [1].

Take `CC(C)(C)c1ccc(S(=O)(=O)n2ccc(C(=O)Nc3ccc(F)cc3)c2)cc1` [Compound 92, 1-((4-(tert-butyl)phenyl)sulfonyl)-N-(4-fluorophenyl)-1H-pyrrole-3-carboxamide]: the IC50 is 4 µM in the assay with A2780 (ovarian) cells, 17.3 µM in the assay with A549 (NSCLC) cells and 16.6 µM in assay [1].

Turning to `O=C(Nc1ccccc1C(F)(F)F)c1ccn(S(=O)(=O)c2ccc3[nH]ccc3c2)c1` [Compound 47, 1-((1H-indol-5-yl)sulfonyl)-N-(2-(trifluoromethyl)phenyl)-1H-pyrrole-3-carboxamide], the figures for the IC50 (in the assay on A2780 (ovarian) cells; with A549 (NSCLC) cells; in assay [1]) were 1.6 µM, 2.3 µM and 27.8 µM, respectively.

Regarding `CCC(C)c1ccc(NC(=O)N2CCN(S(=O)(=O)c3ccc4[nH]ccc4c3)CC2)cc1` (stereo not drawn) [Compound 15, 4-((1H-indol-5-yl)sulfonyl)-N-(4-(sec-butyl)phenyl)piperazine-1-carboxamide], the IC50 with A2780 (ovarian) cells was determined as 22.3 µM; in the assay with A549 (NSCLC) cells, 25.8 µM; in assay [1], 14.9 µM.

On to `Cc1ccc(NC(=O)c2ccn(S(=O)(=O)c3ccc4c(c3)CCN4)c2)cc1O` [Compound 22, N-(3-hydroxy-4-methylphenyl)-1-(indolin-5-ylsulfonyl)-1H-pyrrole-3-carboxamide], for which the concentration for half-maximal inhibition (IC50) in the assay on A2780 (ovarian) cells is over 100 µM; in the assay with A549 (NSCLC) cells, over 100 µM; in assay [1] it was 57.6 µM.

`CC(C)(C)c1ccc(S(=O)(=O)n2ccc(C(=O)NCCc3ccc(F)cc3)c2)cc1` [Compound 89, 1-((4-(tert-butyl)phenyl)sulfonyl)-N-(4-fluorophenethyl)-1H-pyrrole-3-carboxamide]: the IC50 in the assay with A2780 (ovarian) cells is 2.8 µM; in the assay with A549 (NSCLC) cells, 6.7 µM; in assay [1], 15.6 µM.

Turning to `Cc1ccc(NC(=O)c2ccn(S(=O)(=O)c3ccc4[nH]ccc4c3)c2)cc1O` [Compound 25, 1-((1H-indol-5-yl)sulfonyl)-N-(3-hydroxy-4-methylphenyl)-1H-pyrrole-3-carboxamide], the results for the IC50 (with A2780 (ovarian) cells; in the assay on A549 (NSCLC) cells; in assay [1]) were over 100 µM, over 100 µM and 30 µM, respectively.

On to `O=C(Nc1cccc(C(F)(F)F)c1)c1ccn(S(=O)(=O)c2ccc3[nH]ccc3c2)c1` [Compound 46, 1-((1H-indol-5-yl)sulfonyl)-N-(3-(trifluoromethyl)phenyl)-1H-pyrrole-3-carboxamide], for which the 50% inhibitory concentration (IC50) in the assay with A2780 (ovarian) cells stood at 7.1 µM; with A549 (NSCLC) cells it was 7.7 µM; in assay [1] it was 14.7 µM.

Turning to `N#Cc1ccc(NC(=O)c2ccn(S(=O)(=O)c3ccc4[nH]ccc4c3)c2)cc1` [Compound 67, 1-((1H-indol-5-yl)sulfonyl)-N-(4-cyanophenyl)-1H-pyrrole-3-carboxamide], the IC50 in the assay on A2780 (ovarian) cells came out at 6.23 µM; in the assay with A549 (NSCLC) cells, 14.1 µM; in assay [1], 15.7 µM.

Turning to `Cc1cccc(NC(=O)c2ccn(S(=O)(=O)c3ccc4[nH]ccc4c3)c2)c1` [Compound 44, 1-((1H-indol-5-yl)sulfonyl)-N-(m-tolyl)-1H-pyrrole-3-carboxamide], the figures for the IC50 (with A2780 (ovarian) cells; in the assay with A549 (NSCLC) cells; in assay [1]) were 2.5 µM, 8.7 µM and 15.2 µM, respectively.

On to `CCc1cccc(NC(=O)c2ccn(S(=O)(=O)c3ccc4[nH]ccc4c3)c2)c1` [Compound 41, 1-((1H-indol-5-yl)sulfonyl)-N-(3-ethylphenyl)-1H-pyrrole-3-carboxamide], for which the values for the half-inhibitory concentration (IC50) (in the assay on A2780 (ovarian) cells; in the assay on A549 (NSCLC) cells; in assay [1]) were 1.1 µM, 12.8 µM and 16.2 µM, respectively.

As for `O=C(Nc1ccc(C(F)(F)F)cc1)c1ccn(S(=O)(=O)c2ccc3[nH]ccc3c2)n1` [Compound 78, 1-((1H-indol-5-yl)sulfonyl)-N-(4-(trifluoromethyl)phenyl)-1H-pyrazole-3-carboxamide], the IC50 is 5.44 µM with A2780 (ovarian) cells, 18.4 µM in the assay on A549 (NSCLC) cells and 21.6 µM in assay [1].

`CC(C)c1cccc(NC(=O)c2ccn(S(=O)(=O)c3ccc4[nH]ccc4c3)c2)c1` [Compound 38, 1-((1H-indol-5-yl)sulfonyl)-N-(3-isopropylphenyl)-1H-pyrrole-3-carboxamide]: the values for the half-maximal inhibitory concentration (IC50) (in the assay on A2780 (ovarian) cells; with A549 (NSCLC) cells; in assay [1]) were 6.7 µM, 5.4 µM and 12 µM, respectively.

For the compound `CCC(C)c1ccc(NC(=O)c2ccn(S(=O)(=O)c3ccc4[nH]c(C)c(C)c4c3)c2)cc1` (stereo not drawn) [Compound 59, N-(4-(sec-butyl)phenyl)-1-((2,3-dimethyl-1H-indol-5-yl)sulfonyl)-1H-pyrrole-3-carboxamide], the IC50 turned out to be 4.6 µM in the assay on A2780 (ovarian) cells, 6.2 µM with A549 (NSCLC) cells and 10.3 µM in assay [1].

As to `O=C(Nc1ccc(Cl)c(F)c1)c1ccn(S(=O)(=O)c2ccc3[nH]ccc3c2)c1` [Compound 69, 1-((1H-indol-5-yl)sulfonyl)-N-(4-chloro-3-fluorophenyl)-1H-pyrrole-3-carboxamide], the IC50 in the assay on A2780 (ovarian) cells was determined as 8.66 µM; with A549 (NSCLC) cells, 13.3 µM; in assay [1], 17.3 µM.

Take `O=C(Nc1ccc(C(F)(F)F)cc1)C1CCN(S(=O)(=O)c2ccc3c(c2)CCN3)CC1` [Compound 5, 1-(indolin-5-ylsulfonyl)-N-(4-(trifluoromethyl)phenyl)piperidine-4-carboxamide]: the results for the IC50 (in the assay on A2780 (ovarian) cells; in the assay with A549 (NSCLC) cells; in assay [1]) were 14.8 µM, 39.6 µM and 27.4 µM, respectively.

In the case of `CCC(C)c1ccc(NC(=O)C2CCN(S(=O)(=O)c3ccc4cc[nH]c4c3)CC2)cc1` (stereo not drawn) [Compound 64, 1-((1H-indol-6-yl)sulfonyl)-N-(4-(sec-butyl)phenyl) piperidine-4-carboxamide], the results for the concentration for half-maximal inhibition (IC50) (in the assay with A2780 (ovarian) cells; in the assay with A549 (NSCLC) cells; in assay [1]) were 9.8 µM, 14 µM and 4.05 µM, respectively.

Take `CC(C)(C)c1ccc(NC(=O)c2ccn(S(=O)(=O)c3ccc4[nH]ccc4c3)n2)cc1` [Compound 113, 1-((1H-indol-5-yl)sulfonyl)-N-(4-(tert-butyl)phenyl)-1H-pyrazole-3-carboxamide]: the IC50 in the assay with A2780 (ovarian) cells came to 8.37 µM; in the assay with A549 (NSCLC) cells, 7.22 µM; in assay [1], 9.41 µM.

For the compound `CC(C)(C)c1ccc(S(=O)(=O)n2ccc(C(=O)Nc3ccc(C(F)(F)F)cc3)c2)cc1` [Compound 93, 1-((4-(tert-butyl)phenyl)sulfonyl)-N-(4-(trifluoromethyl)phenyl)-1H-pyrrole-3-carboxamide], the IC50 in the assay with A2780 (ovarian) cells was 3.2 µM; with A549 (NSCLC) cells, 12.8 µM; in assay [1], 18.2 µM.
